Test results published in US10654890B2, “Cyclic peptide derivative, method for preparing same and composition thereof” (priority 2014, dated 2020).

Test system: culture astrocyte
Experiment: Astrocyte proliferative activity test (BrdU cell proliferation ELISA)
Format: cell-based, mouse
Description: A pregnant ICR female mouse was purchased from Japan SLC, Inc., and a neonatal mouse 24 to 48 after birth was used for the test.
A neonatal ICR mouse (24 to 48 after birth) was sufficiently sterilized with 70% ethanol, immersed in 30 ml of PBS (−) in a 100 mm dish (diameter of 100 mm, Orange Scientific) for cell culture, and then placed in a clean bench. The neonatal mouse was subjected to cervical dislocation using tweezers and euthanized. Head of the neonatal mouse was open and the entire brain was removed. The obtained brain was transferred to a 100 mm dish for cell culture in which 15 ml of high glucose Dulbecco's modified Eagle medium (HG-D-MEM, Wako Pure Chemical Industries, Ltd.) is added. By using tweezers, the olfactory bulb, median eminence, and meninges were removed in the medium to obtain only a cerebrum having hippocampus. Subsequently, the obtained cerebrum was transferred to a 100 mm dish for cell culture added with 10 ml of HG-D-MEM, and using a scalpel, the cerebrum was finely cut to be 1 mm^2 or less. The cerebrum after cutting was transferred, together with the medium, to a 50 ml conical tube (TPP), and after allowing it to stand for 2 minutes, the supernatant was removed. Subsequently, the cerebrum after cutting was added with 4 ml of fresh HG-D-MEM, and after further adding 400 μl of 2.5% trypsin (SIGMA) and 40 μl of 1% DNase I (SIGMA), the cerebrum was incubated in a water bath at 37° C. for 10 minutes under intermittent stirring. Subsequently, to the cerebrum after cutting, 10 ml of HG-D-MEM (10% FBS) was added to terminate the reaction of trypsin followed by centrifuge for 3 minutes at 1,000×g using a centrifuge (H-9R, KOKUSAN Co., Ltd.). The supernatant was collected by an electric pipette, 10 ml of HG-D-MEM (10% FBS) was added to a precipitated cell mass, and pipetting using a sterile pipette was carried out several times until the cell mass is not observed. To remove the remaining cell mass from this cell dispersion, the cell dispersion was passed through a cell strainer (pore diameter of 100 μm, BD Falcon™), and the number of cells in the cell dispersion which has passed through the cell strainer was counted by using a cell counting plate. An adjustment was made with HG-D-MEM (10% FBS) such that the number of cells is 6.0×10^5 cells/ml. After the adjustment of the number of cells, the cell dispersion was seeded, in an amount of 7 ml for each, to a Poly-D-Lysine Cellware 100 mm Dish (PDL 100 mm dish, BD Falcon™). 96 Hours after the seeding, the medium was removed once using an aspirator, and after briefly washing the inside of a 100 mm PDL dish with 10 ml of PBS (−), the medium exchange was carried out by newly adding 7 ml of HG-D-MEM. The above method and the astrocyte preparation described below were carried out based on the method of McCarthy and de Vellis (1980, Non Patent Literature 30).
72 Hours after the medium exchange, the 100 mm PDL dish seeded with the cell broth was removed from the incubator, and tightly covered using a parafilm and fixed by overlaying 3 to 4 dishes. The resultant was cultured by shaking using a bioshaker (MULTI SHAKER MMS, INCUBATOR FMS/EYELA) under a condition including 37° C., 100 rpm, and 20 hours, and the neuronal cells, cell debris, dead cells or the like were liberated. At that time, in the inside the 100 mm PDL dish, only the astrocyte as a glial cell in central nervous system other than neuron was adhered (hereinbelow, described as culture astrocyte). After the shaking, the 100 mm PDL dish was transferred to a clean bench, the supernatant was removed by an aspirator and washed with 10 ml of PBS (−), and after adding 1 ml of 2.5% trypsin (SIGMA) using a Pasteur pipette, the dish was left to stand in an incubator for 10 minutes. The 100 mm PDL dish was again brought back to the clean bench, and added with 10 ml of Dulbecco's modified Eagle medium (D-MEM, Wako Pure Chemical Industries, Ltd.) (10% FBS). […]

`CNC(=O)Oc1ccc2c(c1)[C@]1(C)CCN(C)[C@@H]1N2C` [eserin, reference compound] was tested, and the astrocyte proliferative activity (25 μM, FIG. 8 and FIG. 9) was “no significant astrocyte proliferative activity was observed”.

In the case of `NS(=O)(=O)Cc1noc2ccccc12` [zonisamide, reference compound], the astrocyte proliferation (100 μM, FIG. 7) is reported as “hardly observed”.
